Test results from article PMC7607171, “Optimized low‐dose combinatorial drug treatment boosts selectivity and efficacy of colorectal carcinoma treatment” (Molecular Oncology, 2020).
“And” between values parts separate entries of the source, which are not always exact repeats. Equal values may be shown once. Read-outs that look alike come from different tables or passages of the source.

Assays:
[1] = 0-24h, oral, cited from earlier work
[2] = Clinical plasma pharmacokinetics in patients, plasma concentration limit calculation; type: in vivo; settings: average plasma concentration calculated from AUC0-24h in patients
Procedure: To select for clinically relevant doses, the clinically attainable drug concentration measured in the blood plasma of patients after treatment is used to calculate the concentration limit for in vitro experiments. […] The average drug concentration is calculated from the AUC0–24h and is implemented as the plasma concentration limit (PCL) which drug dose selection must remain below for in vitro experiments. If a drug is FDA approved, the AUC0–24h selected is the one corresponding to the recommended dose in clinical practice. If a drug is in clinical trials, the AUC0–24h selected is the one corresponding to the maximum tolerated dose in early stage clinical trials. Note, experiments were conducted with the most current PCL calculated from the AUC0–24h information available at the start of experiments (December 2017), see Table S4.

[3] = Pharmacokinetics, dried blood spot LC-MS/MS, mice with SW620 tumors; type: in vivo; settings: for Tmax / AUC(0-t) / Cmax: Swiss Nu/nu, mouse, whole blood (dried blood spot), po, 10 mg/kg, regorafenib 30, vemurafenib 75, GDC-0994 10 mg/kg; for AUC(0-t) / Cmax: whole blood, mean ± SD; for AUC(0-t): oral, read-out: AUC0-24h
Procedure: The pharmacokinetic (PK) study was performed using the dried blood spot method. Mice were treated with CTRL, ODCs, and corresponding monotherapies as described above. To determine the disposition in blood in the first 24h, blood samples (5 µL/mouse) were collected from the tail vein (n = 4 mice) at 2h, 4h, 8h, and 24h time points and transferred onto paper (a filter paper 903 protein saver card from Whatman (MA, USA)). A disk with the entire spot was punched from the paper card and transferred to the HPLC vial tube. Hundred µL of MeOH containing a mix of internal standards was added, and the tube was vortex‐mixed for about 1 min before injecting 10 µL into the LC‐MS/MS system. The LC‐MS/MS system consisted of an API 4,000 triple quadrupole mass spectrometer (AB sciex, Concord, ON, Canada) controlled by analyst 1.6.1 software. The mass spectrometer was operated in the multiple reaction monitoring (MRM) mode with positive electrospray ionization. The instrument was coupled with an Agilent series 1100 (Waldbronn, Germany) LC system. Chromatography was performed on a Phenomenex Kinetex C18 analytical column (50 mm x 2.1 mm, 2.6 um; Torrance, CA, USA). The flow rate was 0.5 mL/min using gradient elution conditions. The method was fully validated before application to this pharmacokinetic study.

[4] = Serum and intratumor drug concentration at experimental endpoint, SW620 model; type: in vivo, mice; settings: for concentration at 1 h / Kp at 1 h: Swiss Nu/nu, mouse, oral; for concentration at 1 h: 1h post-treatment at endpoint (day 19); for Kp at 1 h: tumor vs serum, read-out: ratio tumor vs serum; for Kp at 1 h / ratio ODC vs single drug: SW620 model
Procedure: At the experimental endpoint, plasma and tumors were collected 1h post‐treatment and part of the tumor tissue was used to determine the intratumor drug concentrations. Plasma and tumor samples were analyzed using the same LC‐MS/MS method used for drug determination in DBS. Before analysis, tumor tissues were homogenized in a 1 mL mixture of water/acetonitrile (30/70). Hundred uL of homogenates were transferred into new tubes and 50 µL of acetonitrile, as well as 50 µL of a mix of internal standards in MeOH were added. Tubes were vortexed and centrifuged for 10 min at 9,000 rpm. The supernatant (100 µL) was evaporated under nitrogen and reconstituted in 100 µL of acetonitrile with 0.1% formic acid/water with 0.1% formic acid (30/70). 10 µL was then injected into the LC‐MS/MS system. Plasma samples were spotted onto the same paper used for whole blood analysis and were extracted and analyzed using the same methods as used for DBS.

SW620 tumors = experiment: Subcutaneous xenograft tumor growth; type: in vivo, Swiss nu/nu mice
Procedure: All procedures including animal use were performed in accordance with the Institutional Ethical Committee of Animal Care in Geneva and the Swiss Cantonal Veterinary Office (Authorization number GE‐136‐19). Briefly, female and male Swiss nu/nu mice aged 6–8 weeks were obtained from Charles River (Écully, France). For subcutaneous xenografts mice were inoculated in the left flank with 5x10^6 DLD1 or SW620 cells suspended in 100 µL of cell culture medium, supplemented with 1% FBS. Treatment was initiated when palpable tumors had formed (approximately 30 mm^3) on day 4 for DLD1 and day 5 for the SW620 model.
Treatment was initiated once tumor growth was confirmed with bioluminescence measurements. Drugs were administered through oral gavage based on average body weight of the males (100 µL/mouse) and females (80 µL/mouse) at various concentrations, see Tables S10 and S11.
Solution A: step (1) 30% PEG 400 + 5% propylene glycol + 0.5% Tween 80 and (2) 64.5% sterile H2O. Solution B: step (1) 10% DMSO, (2) 30% PEG 300 + 5% Tween 80 and (3) 55% sterile H2O. Vemurafenib was prepared 2x concentrated (half or three/sixth of total solution), and the remaining drugs were prepared 6x concentrated (one/sixth of total solution), after which drugs were diluted to prepare 1x drug concentrations for the ODC or single drugs using the other drugs or complete solvent solutions without drugs for lower concentrations. FOLFOX was administered as 6 mg/kg oxaliplatin two hours before administration of 90 mg/kg leucovorin and 50 mg/kg (DLD1) or 25 mg/kg (SW620) 5‐fluorouracil at day 1 and a repeat of 5‐fluorouracil dosing on day 2.
The Bliss independence model can be used to evaluate the drug interaction potential of a drug mixture. The model is based on the principle that each drug has an independent drug mechanism of action, but all contribute to a common result (e.g., cell death or tumor volume inhibition). The model is based on the probability theory and requires the drug activity of each drug at the selected dose to predict the inhibition rate (IR) at additive doses. For in vivo tumor volume results, we predicted the IR based on the fraction of tumor volume remaining after single‐drug treatment of each of the drugs vs 100% CTRL (F1,2,3,4), using the following formula: IR = […].

[5] = given as part of SW620-specific ODC
[6] = GDC-0994 10 mg/kg, Exp 6, Day 20
[7] = GDC-0994 10 mg/kg, Exp 8, Day 19
[8] = GDC-0994 20 mg/kg, Exp 4, Day 22

In the case of `Clc1ccc(Nc2nnc(Cc3ccncc3)c3ccccc23)cc1` [vatalanib], the AUC ([1]; 1,000 mg/kg once daily) is listed as 52.9 mg·h/L, the AUC ([1]; 1,200 mg/kg once daily) is listed as 69.2 mg·h/L and the “PCL (plasma concentration limit)” value [2] is listed as 8.31 µM and 8.3 µM.
In the case of `CC1(COc2ccc3c(c2)ncn3-c2ccc3cccc(N4CCC(N)CC4)c3n2)COC1` [crenolanib], the AUC ([1]; 100 mg/kg twice daily) is given as 3.2 mg·h/L, the AUC ([1]; 200 mg/kg once daily) is given as 4.610 mg·h/L and the “PCL (plasma concentration limit)” value [2] is given as 0.43 µM and 0.4 µM.
For `O=C(CCCCCCC(=O)Nc1ccccc1)NO` [vorinostat], the AUC ([1]; 200 mg/kg twice daily) is listed as 4.61 µM·h and the “PCL (plasma concentration limit)” value [2] is listed as 0.19 µM and 0.2 µM.
With `Cn1nccc1Nc1nccc(-c2ccn([C@H](CO)c3ccc(Cl)c(F)c3)c(=O)c2)n1` [GDC-0994, (S)-1-(1-(4-Chloro-3-fluorophenyl)-2-hydroxyethyl)-4-(2-((1-methyl-1H-pyrazol-5-yl)amino)pyrimidin-4-yl)pyridin-2(1H)-one] the “PCL (plasma concentration limit)” value [2] was 2.02 µM and 2.0 µM, the Tmax [3, 5] was 2 h and the AUC(0-t) [3, 5] was 45000 ± 9090 ng·h/mL. For the same compound, the Cmax [3, 5] was 6610 ± 1110 ng/mL, the Tmax ([3]; mono) was 2 h and the AUC(0-t) ([3]; mono) was 31600 ± 4740 ng·h/mL. For the same compound, the Cmax ([3]; mono) was 6090 ± 1930 ng/mL, the “increase of AUC as part of the ODC vs single-drug treatment” value ([3]; mice bearing SW620 tumors, AUC0-24h) was 1.4 x and the concentration at 1 h ([4]; serum, 10 mg/kg, as part of ODC, regorafenib 30, selumetinib 0.2, vemurafenib 75, GDC-0994 10 mg/kg, read-out: concentration serum) was 19400 ± 9390 ng/mL. For the same compound, the concentration at 1 h ([4]; serum, 10 mg/kg, single drug, regorafenib 30, selumetinib 0.2, vemurafenib 75, GDC-0994 10 mg/kg, read-out: concentration serum) was 15900 ± 9070 ng/mL, the concentration at 1 h ([4]; tumor (SW620), as part of ODC, SW620 tumor, doses as E164, read-out: concentration tumor) was 5560 ± 3000 ng/g and the concentration at 1 h ([4]; tumor (SW620), single drug, SW620 tumor, doses as E164, read-out: concentration tumor) was 12700 ± 2870 ng/g. The Kp at 1 h ([4]; as part of ODC) was 0.29, the Kp at 1 h ([4]; single drug) was 0.8 and the “ratio ODC vs single drug” value ([4]; serum) was 1.22. The “ratio ODC vs single drug” value ([4]; tumor) was 0.44, the “% CTRL (tumor volume)” value (SW620 tumors; [6]) was 56 33 15 % CTRL and the Volume (SW620 tumors; [6]) was 290 170 76 mm^3. For the same compound, the “% CTRL (tumor volume)” value (SW620 tumors; [7]) was 56 18 7 % CTRL, the Volume (SW620 tumors; [7]) was 354 114 46 mm^3 and the “% CTRL (tumor volume)” value (SW620 tumors; [8]) was 62 31 22 % CTRL. For the same compound, the Volume (SW620 tumors; [8]) was 301 148 105 mm^3.
For `Cn1c(=O)n(-c2ccc(C(C)(C)C#N)cc2)c2c3cc(-c4cnc5ccccc5c4)ccc3ncc21` [BEZ-235], the AUC ([1]; 400 mg/kg once daily, ref 16) is listed as 0.7413 mg·h/L and the AUC ([1]; 400 mg/kg once daily, ref 17) is listed as 1.4044 mg·h/L.
